US10980766B2, “Entacapone-related compounds to treat macular degeneration” (National Institute of Biological Sciences, Beijing, priority 2016, dated 2021)
Marks after values point to notes of the source that are not given here.

Tested on: hypoxia-induced retinopathy zebrafish model
Assay: hypoxia-induced retinopathy zebrafish model (cobalt chloride induced)
Assay type: in vivo
Details: for Blood vessel diameter (mean ± SE): cobalt chloride co-treatment for 4 days, n=10; for Recovery rate (%): blood vessel diameter recovery
Procedure: We measured the therapeutic efficacy of entacapone and representative entacapone derivatives in hypoxia-induced retinopathy zebrafish model (Cao et al., Hypoxia-induced retinopathy model in adult zebrafish. Nat Protoc 2010, 5 (12), 1903-10).
We measured the therapeutic effect of entacapone and several representative entacapone derivatives on hypoxia-induced retinopathy zebrafish model. The transgenic Tg (flila:EGFP) zebrafish were treated with cobalt chloride for 4 days to induce retinopathy. […] As positive control, zebrafish were treated with cobalt chloride and 100 μL/mL eye-drops augentropfen stulln mono containing 0.3 μg/mL digitalin and 2 μg/mL esculin.

[1] = 10 μM as printed in text, 4 days

`CCN(CC)C(=O)/C(C#N)=C/c1cc(O)c(O)c([N+](=O)[O-])c1` [Entacapone, (2E)-2-cyano-3-(3,4-dihydroxy-5-nitrophenyl)-N,N-diethylprop-2-enamide] was tested, and the “Blood vessel diameter (mean ± SE)” value (5 μM) was 19.33 ± 0.52 pixel, the “Blood vessel diameter (mean ± SE)” value (5 μM, listed as entacapone) was 19.33 pixel and the “blood vessel diameter recovery rate” value [1] was 94%. The retinal blood diameter [1] was 17.39, the “Blood vessel diameter (mean ± SE)” value (15 μM) was 17.39 ± 0.49 pixel and the “Blood vessel diameter (mean ± SE)” value (50 μM) was 17.47 ± 0.29 pixel. For the same compound, the “Blood vessel diameter (mean ± SE)” value (50 μM, listed as entacapone) was 17.47 pixel, the “eye ball volume (in words)” value (after treatment, compared with model group) was “larger” and the “Recovery rate (%)” value (5 μM, 4 days) was 58*** %. For the same compound, the “Recovery rate (%)” value (5 μM, 4 days, listed as entacapone) was 58%, the “Recovery rate (%)” value (15 μM, 4 days) was 94*** % and the “Recovery rate (%)” value (50 μM, 4 days) was 93*** %. For the same compound, the “Recovery rate (%)” value (50 μM, 4 days, listed as entacapone) was 93%, the “retinal angiogenesis and retina structure (in words)” value (compared with model group) was “suppress hypoxia-induced retinal neoangiogenesis and improve histopathology of retinopathy” and the “inner plexiform layer and outer plexiform layer thickness (in words)” value (treated groups compared with model group) was “thicker”.
